The values below are quoted from earlier work in patent US20190192601A1, “EXTRACTS OF CYCLANTHERA PEDATA AND FORMULATIONS AND USES THEREOF” (priority 2014, published 2019).

For data set [1] the following is noted: in vivo.
The test system of data set [2] is patients.

On to `O=C(CCCN1CCN(c2ccc(F)cc2)CC1)NC1c2ccccc2CSc2ccccc21` (stereo not drawn) [Monatepil], for which, in data set [1], the plasma lipid levels entry is “found to reduce”.

Take vitamin E: the “lower risk of heart disease” value in data set [2] (supplementation with 30 IU to 100 IU) is 41%. Further, the “progression of coronary artery disease” value in data set [2] (supplementation with 100 IU) was “reduced progression”.
